Test results as given in patent US11510931B2, “Compositions and methods for treating ophthalmic conditions” (MEDICON PHARMACEUTICALS, INC., priority 2016, dated 2022).

Legend:
Format in all cases: in vivo, rabbit
Details in all cases: Con A DED rabbits, 6 days, eye drops 3×/day; PS nanoparticles, cyclosporine 0.05%, lifitegrast 5%; mean ± SEM
[1] = system: concanavalin A-induced dry eye in rabbits; assay: Concanavalin A (Con A)-induced dry eye disease (DED) model in rabbits: TBUT, Schirmer test, tear osmolarity, tear lactoferrin
Experimental: To assess the efficacy of PS on DED an improved concanavalin A model was used. In the concanavalin A model, dry eye is induced by injecting the lacrimal glands of a mammal with concanavalin A, a selective T cell mitogen that induces a lymphocytic infiltrate in these glands. The concanavalin A model is generally described in (Barabino S. Animal models of dry eye. Arch Soc Esp Oftalmol. 2005; 80(12):693-4). Concanavalin A was injected to the lacrimal glands under ultrasound guidance, thus eliminating injections to the vicinity of the gland (as opposed to the gland itself). The head and the tail of the major lacrimal gland of the rabbit were injected separately. The dose of concanavalin A was optimized for DED signs.
In the testing described below, four markers of DED are monitored: the tear break up time (TBUT), the Schirmer test, tear osmolarity, and tear lactoferrin levels. All assays were performed at the same clock time (±1 hr) to avoid assay variability on account of circadian variations.
In an efficacy experiment using the concanavalin A model, one group of rabbits was treated with compound 5, also known as phosphosulindac and abbreviated as PS, 1.5% eye drops and one group with vehicle. […] It is thus clear that PS applied topically suppresses DED.
Con A was injected under ultrasound guidance into all the lacrimal glands and the success of the injection was verified by a post-injection ultrasound image (see FIG. 1 and FIG. 2). […] This variation explains why the blind injections recommended in the original method are often unsuccessful. This was confirmed by mixing the Con A solution with methylene blue and tracking its course after injection. In about ⅓ of the cases, Con A ended up outside the gland.
Four parameters of efficacy were evaluated instead of the usual one or two. They include (a) the tear break up time (TBUT), determined using 0.2% fluorescein over the eye and recording the time taken to develop black dots, lines or obvious disruption of the fluorescein film; (b) tear osmolarity, measured using TearLab Osmolarity Test and following the manufacturer's instructions (TearLab Corp., San Diego, Calif.); (3) Schirmer tear test (STT), determined using Schirmer strips (EagleVision, Denville, N.J.) inserted between the cornea and the palpebral conjunctiva at the mid-point of the lower lid and measuring the length of moistened strip at 5 min; and (4) tear lactoferrin levels measured by ELISA kit (MyBiosource, San Diego, Calif.) following the instructions of the manufacturer. All four have been used in clinical practice and correlate with the clinical activity of the disease. The STT is the least reliable and, as result, it is clinically used less than half as frequently as TBUT.
The injections of Con A to the lacrimal glands were repeated weekly as needed. When longer than a 1-week periods of study are needed, repeat injections prolong dry eye for at least 3 weeks, making the originally acute model chronic.
PS Suppresses Con A—Induced Dry Eye in Rabbits. The effect of PS on dry eye was determined in New Zealand White (NZW) rabbits, 2-3 kg (Charles River Labs, Waltham, Mass.). These rabbits were housed singly in rooms with strict temperature (70±5° F.) and humidity (45±5%) control and acclimated for at least 2 weeks prior to induction of dry eye by injection of Con A as above. NZW rabbits with Con A-induced dry eye (three sets of injections) were treated with PS formulated as nanoparticles and administered topically as eye drops 3×/day for 21 days, starting on the day of Con A injection. […] Similar results were obtained on days 5 and 14 (data not shown).
Using this model, we compared the effect of PS to that of cyclosporine and lifitegrast. Rabbits were treated for 6 days with PS as above or cyclosporine 0.05% or lifitegrast 5% eye drops 3×/day. In addition to determining TUBT, osmolarity and STT, we measured the levels of IL-8 and IL-1β in the ILGs of the rabbits harvested at euthanasia. […]

IL-8 = IL-8 levels in the ILG of rabbits with DED (ELISA)
Experimental: (§1) Using this model, we compared the effect of PS to that of cyclosporine and lifitegrast. Rabbits were treated for 6 days with PS as above or cyclosporine 0.05% or lifitegrast 5% eye drops 3×/day. In addition to determining TUBT, osmolarity and STT, we measured the levels of IL-8 and IL-1β in the ILGs of the rabbits harvested at euthanasia. Both of these cytokines are significant mediators of inflammation in DED. As shown in the table below, PS had statistically significant effects on TBUT, tear osmolarity, IL-8 and IL-1β levels. […] Of note, lifitegrast suppressed STT below the levels of the vehicle group and this suppression was statistically significant, but in the opposite direction for a useful therapeutic effect.
(§2) Moreover, for all three cytokines PS suppressed their unstimulated levels as well (62%, 84% and 4.7% reduction, respectively). In addition, PS suppressed the levels of IL-8 by 64% and IL-1β (not expressed by the cultured cells) by 61% in the ILG of rabbits treated with PS for 1 week compared to controls treated with vehicle (FIG. 8B). TGF-β was not detectable by the method in ILG homogenates. All these changes were statistically significant (p<0.001-0.04, except for the unstimulated TGF-β).

IL-1β = IL-1β levels in the ILG of rabbits with DED (ELISA)
Experimental: as §1, §2

`CS(=O)(=O)c1cccc(C[C@H](NC(=O)c2c(Cl)cc3c(c2Cl)CCN(C(=O)c2ccc4ccoc4c2)C3)C(=O)O)c1` [Lifitegrast, lifitegrast, reference compound] showed an Osmolarity [1] of 290 ± 4.2 mOsm/L, an STT [1] of 6.9 ± 0.7 mm and a TBUT [1] of 9.1 ± 3.0 s. The “IL-8 in the ILG” value (IL-8) was 9.0 ± 2.4 pg/mg protein and the “IL-1β in the ILG” value (IL-1β) was 11.5 ± 1.9 pg/mg protein.
